Measurements taken from patent publication US11780851B2, “LRRK2 inhibitors” (H. Lundbeck A/S, priority 2021, dated 2023).
“Also recorded” adds a separate entry of the source. Where two headings read alike, the source gives them in different places.

Tests used:
LRRK2 G2019S = target: T1, LRRK2 G2019S (Homo sapiens, UniProt Q5S007, G2019S); test: LRRK2 G2019S kinase activity assay (LanthaScreen TR-FRET); format: biochemical; details: 250 pM LRRK2 G2019S, 1.3 mM ATP, 3 h at 30° C.; n≥2 tests
T1 construct: purchased Invitrogen (Life Technologies Corporation)
T1 sequence (Q5S007 970-2527 G2019S): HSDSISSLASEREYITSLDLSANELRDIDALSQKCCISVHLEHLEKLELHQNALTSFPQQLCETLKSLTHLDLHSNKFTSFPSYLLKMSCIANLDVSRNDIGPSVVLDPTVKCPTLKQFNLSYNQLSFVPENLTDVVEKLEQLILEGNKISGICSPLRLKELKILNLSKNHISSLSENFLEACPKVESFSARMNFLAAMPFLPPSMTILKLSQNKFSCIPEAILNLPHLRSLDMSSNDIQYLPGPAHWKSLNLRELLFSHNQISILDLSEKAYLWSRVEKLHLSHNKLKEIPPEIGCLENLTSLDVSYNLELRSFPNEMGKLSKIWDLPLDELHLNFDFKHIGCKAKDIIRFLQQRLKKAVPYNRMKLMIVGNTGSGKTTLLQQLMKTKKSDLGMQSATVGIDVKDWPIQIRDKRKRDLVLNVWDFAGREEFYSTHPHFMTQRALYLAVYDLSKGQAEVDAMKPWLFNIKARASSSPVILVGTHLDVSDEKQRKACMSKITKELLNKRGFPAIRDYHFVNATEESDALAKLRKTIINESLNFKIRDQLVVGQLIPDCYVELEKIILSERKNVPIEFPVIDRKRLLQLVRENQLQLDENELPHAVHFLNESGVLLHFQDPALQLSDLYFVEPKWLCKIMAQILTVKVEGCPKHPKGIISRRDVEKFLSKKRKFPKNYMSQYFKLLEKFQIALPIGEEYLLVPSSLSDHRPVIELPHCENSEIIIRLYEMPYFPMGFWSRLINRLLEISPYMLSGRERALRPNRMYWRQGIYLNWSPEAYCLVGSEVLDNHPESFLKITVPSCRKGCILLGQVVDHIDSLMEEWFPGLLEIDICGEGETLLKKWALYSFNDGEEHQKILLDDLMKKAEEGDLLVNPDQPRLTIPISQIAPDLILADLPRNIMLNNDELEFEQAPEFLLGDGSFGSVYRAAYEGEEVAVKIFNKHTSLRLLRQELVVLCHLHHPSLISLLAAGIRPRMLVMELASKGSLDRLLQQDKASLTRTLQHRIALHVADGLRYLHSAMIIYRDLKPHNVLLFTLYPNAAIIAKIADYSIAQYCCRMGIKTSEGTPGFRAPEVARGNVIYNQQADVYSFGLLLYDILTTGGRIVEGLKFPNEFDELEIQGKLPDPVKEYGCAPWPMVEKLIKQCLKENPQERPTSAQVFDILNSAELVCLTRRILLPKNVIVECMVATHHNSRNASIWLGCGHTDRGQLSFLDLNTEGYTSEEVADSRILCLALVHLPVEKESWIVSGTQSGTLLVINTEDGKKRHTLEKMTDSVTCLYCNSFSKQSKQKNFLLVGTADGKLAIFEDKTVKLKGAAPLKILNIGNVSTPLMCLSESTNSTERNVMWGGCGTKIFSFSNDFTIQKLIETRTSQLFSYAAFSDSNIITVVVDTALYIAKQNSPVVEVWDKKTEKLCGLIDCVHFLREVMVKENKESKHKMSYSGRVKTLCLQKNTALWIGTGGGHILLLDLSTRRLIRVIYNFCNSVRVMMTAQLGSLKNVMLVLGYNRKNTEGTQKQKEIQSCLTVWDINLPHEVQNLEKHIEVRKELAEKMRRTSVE
Summary of the method: (§1)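 TR-FRET measured phosphorylation of fluorescein-ERM LRRKtide by human LRRK2 residues 970–2527, wild-type or G2019S, detected with a terbium anti-phospho-LRRKtide antibody. The 520/495 nm ratio was normalized to uninhibited and inhibitor controls. IC50 came from a Hill fit, log-averaged over independent experiments.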

[1] = tested on: pooled donor, cryopreserved hepatocytes; test: Hepatocyte intrinsic clearance assay; format: in vitro ADME, human; details: 0.1 μM, 2 h at 37° C., 1×10^6 hepatocytes/mL; * measured on 3 separate occasions, ** on a single occasion
Experimental: (§2) Test compounds (final concentration 0.1 μM, 0.05% organic) were incubated for 2 h at 37° C., with shaking, in supplemented Leibovitz L-15 media (pH7.4) containing commercially sourced, pooled donor, cryopreserved hepatocytes (final concentration 1×10^6 hepatocytes/m L). The CLint reactions (350 μL) were initiated by addition of test compound. Aliquots (25 μL) were taken at 1, 5, 10, 15, 30, 60, 90 and 120 minutes and then protein crashed with ice-cold acetonitrile containing internal standard (150 μL) then centrifuged (1960 g for 20 minutes at 4° C.). Supernatant was diluted (1:4) with deionized water then analyzed by liquid chromatography (LC)-tandem mass spectrometry (MS/MS). The intrinsic clearances (CLint) were calculated from the slope (k) of the linear regressions of percentages of compound remaining in incubation against incubation time, according to equations 2 and 3.

LRRK2 WT = target: T2, LRRK2 WT (Homo sapiens, UniProt Q5S007); test: LRRK2 wild-type kinase activity assay (LanthaScreen TR-FRET); format: biochemical; details: 1 nM LRRK2 WT, 1.3 mM ATP, 3.5 h at 30° C.; n≥2 tests
T2 construct: comprises residue 970 to 2527 of the full length human wild-type LRRK2 kinase; purchased Invitrogen (Life Technologies Corporation)
T2 sequence (Q5S007 970-2527): as the sequence (Q5S007 970-2527 G2019S) above, with S1050G counted along it
Summary of the method: as §1

[2] = Rat B/P (brain disposition); format: in vivo, male Sprague-Dawley rats; details: male, Sprague-Dawley; for concentration at 1 h / Kp uu at 1 h / Kp at 1 h: time point 1.0 h
Summary of the method: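 Male Sprague-Dawley rats (n=3, standard body weight) were used to assess brain disposition. Plasma and brain homogenates underwent protein precipitation with acetonitrile containing internal standard, then LC-MS/MS measurement using an optimized method. Compound levels were quantified against matrix-matched calibration standards, and brain Kp was calculated as total brain concentration divided by total plasma concentration.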

[3] = Free fraction in plasma (equilibrium dialysis); format: in vitro ADME, male Sprague-Dawley rat; details: rat plasma, 1 μM, 5 h at 37° C.
Summary of the method: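 Equilibrium dialysis (12-14 kDa membrane) of male Sprague-Dawley rat or female Gottingen minipig plasma, or rat brain homogenate diluted 1:4, against 100 mM sodium phosphate pH 7.4, compound at 1 μM nominal (≤0.5% DMSO), 5 h at 37 °C. LC/MS-MS quantification; percent free calculated, with dilution factor 4 for brain.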

GSH adduct screening = format: in vitro ADME, human; details: 1 μM, 3 h at 37° C., HLM 0.5 mg/mL, NADPH, with and without GSH
Experimental: Test compounds (final concentration 1 μM, 0.25% organic) were incubated for 3 h at 37° C. in commercially sourced, pooled donor, human liver microsomes (HLM, final concentration 0.5 mg/mL) with and without addition of glutathione (GSH; final concentration […]). The metabolic reaction was initiated by addition of microsomal solution to the mixture of cofactor NADPH (final concentration 1 mM), test compound and GSH. After 3 h of incubation in a water bath at 37° C., the reaction was stopped by addition of 0.2% formic acid in acetonitrile, followed by mixing and centrifugation (16000 g for 5 minutes). Supernatant was diluted (1:1) with HPLC water then analyzed by liquid chromatography (LC)-quadrupole time-of-flight mass spectrometry (QTOF-MS). Accurate mass MS and MS/MS spectra from samples with GSH and without GSH, respectively, were compared to identify detectable GSH and/or cysteine related adducts.

[4] = Hepatocyte intrinsic clearance assay; format: in vitro ADME, human; details: human, pooled donor, cryopreserved hepatocytes, pH 7.4, 0.1 μM, 2 h at 37° C., 1×10^6 hepatocytes/mL; * measured on 3 separate occasions, ** on a single occasion
Experimental: as §2

[5] = brain, oral gavage 10 mg/kg, mean ± stdev, n = 3, read-out: Total brain concentration
[6] = brain/plasma, oral gavage 10 mg/kg, fubrain from brain homogenate
[7] = brain/plasma, oral gavage 10 mg/kg, mean ± stdev, n = 3
[8] = plasma, oral gavage 10 mg/kg, mean ± stdev, n = 3, read-out: Total plasma concentration

IC50 (LRRK2 G2019S) | CLint [1] | IC50 (LRRK2 WT) | fuplasma (% free) [3] | Adduct detected in GSH supplemented HLMs (GSH adduct screening) | Structure (SMILES) | other results
2.2 nM | 5.5 mL/min/kg | 9.2 nM |  |  | Cc1c2c(nn1[C@H]1CCCOC1)OCCCn1nc(Cl)c3cnc(nc31)N2 (single isomer, unassigned) [Example 3, (R) or (S)-8-Chloro-3-methyl-2-(tetrahydro-2H-pyran-3-yl)-2,4,12,13-tetrahydro-11H-5,7-(azenometheno)dipyrazolo[3,4-b:5′,1′-g][1]oxa[4,6,8]triazacycloundecine] | 
2.8 nM | 14.5 mL/min/kg | 12 nM | 25.3 % free |  | Cc1c2c(nn1[C@H]1CCCOC1)OCCCn1nc(Cl)c3cnc(nc31)N2 (single isomer, unassigned) [Example 4, (R) or (S)-8-Chloro-3-methyl-2-(tetrahydro-2H-pyran-3-yl)-2,4,12,13-tetrahydro-11H-5,7-(azenometheno)dipyrazolo[3,4-b:5′,1′-g][1]oxa[4,6,8]triazacycloundecine] | concentration at 1 h [2, 5]: 1360 ± 186 ng/g; Kp uu at 1 h [2, 6]: 0.42 ± 0.07; Kp at 1 h [2, 7]: 1.82 ± 0.33; concentration at 1 h [2, 8]: 758 ± 145 ng/mL
3.6 nM |  | 11 nM | 25.0 % free | +GSH | Cc1c2c(nn1[C@@H]1CCO[C@H](C)C1)OCCCn1nc(Cl)c3cnc(nc31)N2 (single isomer, unassigned) [Example 18] | concentration at 1 h [2, 5]: 897 ± 292 ng/g; Kp uu at 1 h [2, 6]: 0.35 ± 0.05; Kp at 1 h [2, 7]: 1.47 ± 0.22; concentration at 1 h [2, 8]: 636 ± 265 ng/mL; CLint scaled at 0.1 μM [4]: < 4 mL/min/kg
4 nM | 10.5 mL/min/kg | 12 nM | 26.5 % free |  | Cc1c2c(nn1[C@H]1CCCOCC1)OCCCn1nc(Cl)c3cnc(nc31)N2 (single isomer, unassigned) [Example 30, (+)-(R) or (S)-8-Chloro-3-methyl-2-(oxepan-4-yl)-2,4,12,13-tetrahydro-11H-5,7-(azenometheno)dipyrazolo[3,4-b:5′,1′-g][1]oxa[4,6,8]triazacycloundecine] | concentration at 1 h ([2]; brain, oral gavage 5 mg/kg, mean ± stdev, n = 3, read-out: Total brain concentration): 427 ± 96 ng/g; Kp uu at 1 h ([2]; brain/plasma, oral gavage 5 mg/kg, fubrain from brain homogenate): 0.73 ± 0.06; Kp at 1 h ([2]; brain/plasma, oral gavage 5 mg/kg, mean ± stdev, n = 3): 2.05 ± 0.18; concentration at 1 h ([2]; plasma, oral gavage 5 mg/kg, mean ± stdev, n = 3, read-out: Total plasma concentration): 210 ± 50 ng/mL
6.1 nM | <4 mL/min/kg | 15 nM |  |  | Cc1c2c(nn1[C@@H]1CCOC[C@H]1F)OCCCn1nc(Cl)c3cnc(nc31)N2 (single isomer, unassigned) [Example 32, (+)-8-Chloro-2-((3S,4R) or (3R,4S)-3-fluorotetrahydro-2H-pyran-4-yl)-3-methyl-2,4,12,13-tetrahydro-11H-5,7-(azenometheno)dipyrazolo[3,4-b:5′,1′-g][1]oxa[4,6,8]triazacycloundecine] | 
10 nM | <4 mL/min/kg | 19 nM |  | +GSH | [2H]C([2H])([2H])c1c2c(nn1[C@H]1CCO[C@@H](C)C1)OCCCn1nc(Cl)c3cnc(nc31)N2 (single isomer, unassigned) [Example 52, (−)-8-Chloro-3-(methyl-d3)-2-((2R,4R) or (2S,4S)-2-methyltetrahydro-2H-pyranyl)-2,4,12,13-tetrahydro-11H-5,7-(azenometheno)dipyrazolo[3,4-b:5′,1′-g][1]oxa[4,6,8]triazacycloundecine] | 
6.2 nM | 6.67 mL/min/kg | 17 nM |  |  | [2H]C([2H])([2H])c1c2c(nn1[C@H]1CCCOCC1)OCCCn1nc(Cl)c3cnc(nc31)N2 (single isomer, unassigned) [Example 59, (−)-(R) or (S)-8-Chloro-3-(methyl-d3)-2-(oxepan-4-yl)-2,4,12,13-tetrahydro-11H-5,7-(azenometheno)dipyrazolo[3,4-b:5′,1′-g][1]oxa[4,6,8]triazacycloundecine] | 
9 nM | 8.5 mL/min/kg | 25 nM |  |  | [2H]C([2H])([2H])c1c2c(nn1[C@@H]1CCCOC1)OCCCn1nc(Cl)c3cnc(nc31)N2 (single isomer, unassigned) [Example 60, (R) or (S)-8-Chloro-3-(methyl-d3)-2-(tetrahydro-2H-pyran-3-yl)-2,4,12,13-tetrahydro-11H-5,7-(azenometheno)dipyrazolo[3,4-b:5′,1′-g][1]oxa[4,6,8]triazacycloundecine] | 
10 nM | <4 mL/min/kg | 34 nM |  |  | [2H]C([2H])([2H])c1c2c(nn1[C@@H]1CCCOC1)OCCCn1nc(Cl)c3cnc(nc31)N2 (single isomer, unassigned) [Example 61, (R) or (S)-8-Chloro-3-(methyl-d3)-2-(tetrahydro-2H-pyran-3-yl)-2,4,12,13-tetrahydro-11H-5,7-(azenometheno)dipyrazolo[3,4-b:5′,1′-g][1]oxa[4,6,8]triazacycloundecine] | 
3.7 nM |  | 8.5 nM | 18.2 % free | +GSH | CO[C@H]1CC[C@H](n2nc3c(c2C)Nc2ncc4c(Cl)nn(c4n2)CCCO3)CC1 [Example 37, 8-Chloro-2-((1r,4r)-4-methoxycyclohexyl)-3-methyl-2,4,12,13-tetrahydro-11H-5,7-(azenometheno)dipyrazolo[3,4-b:5′,1′-g][1]oxa[4,6,8]triazacycloundecine] | concentration at 0.5 h ([2]; brain, oral gavage 10 mg/kg, time point 0.5 h, mean ± stdev, n = 3, read-out: Total brain concentration): 683 ± 139 ng/g; Kp at 0.5 h ([2]; brain/plasma, oral gavage 10 mg/kg, time point 0.5 h, mean ± stdev, n = 3): 1.87 ± 0.76; Kp uu at 0.5 h ([2]; brain/plasma, po, 10 mg/kg, oral gavage 10 mg/kg, time point 0.5 h, fubrain from brain homogenate): 0.47 ± 0.19; concentration at 0.5 h ([2]; plasma, oral gavage 10 mg/kg, time point 0.5 h, mean ± stdev, n = 3, read-out: Total plasma concentration): 391 ± 96 ng/mL; CLint scaled at 0.1 μM [4]: < 4 mL/min/kg

Structure (SMILES) | IC50 (LRRK2 G2019S) | CLint [1] | IC50 (LRRK2 WT) | fuplasma (% free) [3] | Adduct detected in GSH supplemented HLMs (GSH adduct screening) | other results
CCc1c2c(nn1C1CCOCC1)OCCCn1nc(Cl)c3cnc(nc31)N2 [Example 17, 8-Chloro-3-ethyl-2-(tetrahydro-2H-pyran-4-yl)-2,4,12,13-tetrahydro-11H-5,7-(azenometheno)dipyrazolo[3,4-b:5′,1′-g][1]oxa[4,6,8]triazacycloundecine] | 5.8 nM |  | 15 nM | 27.5 % free | did not form GSH adduct; also recorded: None detected | concentration at 1 h [2, 5]: 1150 ± 59 ng/g; Kp at 1 h [2, 7]: 1.76 ± 0.08; Kp uu at 1 h ([2]; brain/plasma, po, 10 mg/kg, oral gavage 10 mg/kg, fubrain from brain homogenate): 0.59 ± 0.03; concentration at 1 h [2, 8]: 653 ± 52 ng/mL; CLint scaled at 0.1 μM [4]: 5.67 mL/min/kg
